For 7 compounds, T/C results are on record in PubChem BioAssay AID220 (DTP/NCI, 2004).

This assay relates to CD8F1 mice, subcutaneous mammary adenocarcinoma, T/C%. Briefly: NCI In Vivo Anticancer Drug Screen. Data for tumor model Mammary Adenocarcinoma CD8F1 (subcutaneous) in CD8F1. The note with it: higher = larger tumour. In outline: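 Tumor-bearing mice, transplantable model; readout survival or tumor size; value = treated (T) / vehicle control (C).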
Setting [1] is: endpoint: median tumor weight (est.), dose: 50.0 mg/kg/injection, schedule: Q07DX005 (ip), vehicle: saline with Tween-80.
Setting [2] is: endpoint: median tumor weight (est.), dose: 100.0 mg/kg/injection, schedule: Q07DX005 (ip), vehicle: saline with Tween-80.

SMILES strings stand for the structures. “And” between values parts separate entries of the source, which are not always exact repeats. Equal values may be shown once. Results filed as inconclusive are left out.

`O=c1[nH]cc(F)c(=O)[nH]1`: the T/C (endpoint: mean tumor weight (est.), dose: 50.0 mg/kg/injection, schedule: Q07DX004 (ip), vehicle: saline) is 28 % of control; the T/C (endpoint: mean tumor weight (est.), dose: 50.0 mg/kg/injection, schedule: Q07DX004 (iv), vehicle: saline) was 25 % of control; the T/C (endpoint: mean tumor weight (est.), dose: 100.0 mg/kg/injection, schedule: Q07DX003 (ip), vehicle: saline) was 15 % of control; the T/C (endpoint: mean tumor weight (est.), dose: 100.0 mg/kg/injection, schedule: Q07DX004 (ip), vehicle: saline) is 2 % of control; the T/C (endpoint: mean tumor weight (est.), dose: 100.0 mg/kg/injection, schedule: Q07DX004 (iv), vehicle: saline) is 3 % of control; the T/C (endpoint: mean tumor weight (est.), dose: 115.0 mg/kg/injection, schedule: Q07DX003 (ip), vehicle: saline) was 14 % of control. In addition, the T/C is 5 % of control (endpoint: mean tumor weight (est.), dose: 130.0 mg/kg/injection, schedule: Q07DX003 (ip), vehicle: saline); 159 % of control (endpoint: mean tumor weight, dose: 5.0 mg/kg/injection, schedule: Q01DX009 (ip), vehicle: saline); 199 % of control (endpoint: mean tumor weight, dose: 10.0 mg/kg/injection, schedule: Q01DX009 (ip), vehicle: saline); 4 % of control (endpoint: mean tumor weight, dose: 20.0 mg/kg/injection, schedule: Q01DX009 (ip), vehicle: saline); 105 % of control (endpoint: mean tumor weight, dose: 25.0 mg/kg/injection, schedule: Q07DX006 (ip), vehicle: saline); 92 % of control (endpoint: mean tumor weight, dose: 25.0 mg/kg/injection, schedule: Q07DX007 (ip), vehicle: saline). The T/C is 10 % of control (endpoint: mean tumor weight, dose: 50.0 mg/kg/injection, schedule: Q07DX006 (ip), vehicle: saline); 11 % of control (endpoint: mean tumor weight, dose: 50.0 mg/kg/injection, schedule: Q07DX007 (ip), vehicle: saline); 176 % of control (endpoint: median tumor weight (est.), dose: 5.0 mg/kg/injection, schedule: Q01DX005 (ip), vehicle: saline); 20 % of control (endpoint: median tumor weight (est.), dose: 10.0 mg/kg/injection, schedule: Q01DX005 (ip), vehicle: saline); 17 % of control (endpoint: median tumor weight (est.), dose: 15.0 mg/kg/injection, schedule: Q04DX005 (ip), vehicle: saline); 4 % of control (endpoint: median tumor weight (est.), dose: 15.0 mg/kg/injection, schedule: Q07DX005 (ip), vehicle: saline). Besides, the T/C is, setting by setting: (endpoint: median tumor weight (est.), dose: 20.0 mg/kg/injection, schedule: Q01DX005 (ip), vehicle: saline) 49 % of control; (endpoint: median tumor weight (est.), dose: 25.0 mg/kg/injection, schedule: Q01DX005 (ip), vehicle: saline) 39 % of control; (endpoint: median tumor weight (est.), dose: 25.0 mg/kg/injection, schedule: Q04DX005 (ip), vehicle: saline) 30 % of control; (endpoint: median tumor weight (est.), dose: 25.0 mg/kg/injection, schedule: Q07DX005 (ip), vehicle: saline) 19 % of control; (endpoint: median tumor weight (est.), dose: 27.0 mg/kg/injection, schedule: Q07DX005 (ip), vehicle: saline) 86 % of control; (endpoint: median tumor weight (est.), dose: 30.0 mg/kg/injection, schedule: Q04DX005 (ip), vehicle: saline) 24 % of control. Further, the T/C (endpoint: median tumor weight (est.), dose: 30.0 mg/kg/injection, schedule: Q07DX005 (ip), vehicle: saline) was 5 % of control; the T/C (endpoint: median tumor weight (est.), dose: 37.5 mg/kg/injection, schedule: Q01DX005 (ip), vehicle: saline) is 14 % of control; the T/C (endpoint: median tumor weight (est.), dose: 37.5 mg/kg/injection, schedule: Q04DX005 (ip), vehicle: saline) was 24 % of control; the T/C (endpoint: median tumor weight (est.), dose: 37.5 mg/kg/injection, schedule: Q07DX005 (ip), vehicle: saline) was 27 % of control; the T/C (endpoint: median tumor weight (est.), dose: 40.0 mg/kg/injection, schedule: Q07DX005 (ip), vehicle: saline) is 48 % of control; the T/C (endpoint: median tumor weight (est.), dose: 50.0 mg/kg/injection, schedule: Q04DX005 (ip), vehicle: saline) was 9 % of control. The T/C runs as follows: (endpoint: median tumor weight (est.), dose: 50.0 mg/kg/injection, schedule: Q07DX005 (ip), vehicle: saline) 2 % of control; (endpoint: median tumor weight (est.), dose: 60.0 mg/kg/injection, schedule: Q07DX005 (ip), vehicle: saline) 18 % of control; (endpoint: median tumor weight (est.), dose: 89.0 mg/kg/injection, schedule: Q01DX001 (ip), vehicle: saline) 30 % of control; (endpoint: median tumor weight (est.), dose: 90.0 mg/kg/injection, schedule: Q07DX005 (ip), vehicle: saline) 9 % of control; (endpoint: median tumor weight (est.), dose: 133.0 mg/kg/injection, schedule: Q01DX001 (ip), vehicle: saline) 22 % of control; (endpoint: median tumor weight (est.), dose: 200.0 mg/kg/injection, schedule: Q01DX001 (ip), vehicle: saline) 21 % of control. The T/C was 17 % of control (endpoint: median tumor weight (est.), dose: 270.0 mg/kg/injection, schedule: Q01DX001 (ip), vehicle: saline); 103 % of control (endpoint: median tumor weight change, dose: 25.0 mg/kg/injection, schedule: Q01DX001 (ip), vehicle: saline); 61 % of control (endpoint: median tumor weight change, dose: 50.0 mg/kg/injection, schedule: Q01DX001 (ip), vehicle: saline); 33 % of control (endpoint: median tumor weight change, dose: 100.0 mg/kg/injection, schedule: Q01DX001 (ip), vehicle: saline).
On to `C[n+]1c(-c2cccc(OCCOCCOc3cccc(-c4c5cc(N)ccc5c5ccc(N)cc5[n+]4C)c3)c2)c2cc(N)ccc2c2ccc(N)cc21`, for which the T/C by setting is: (endpoint: median tumor weight change, dose: 5.0 mg/kg/injection, schedule: Q01DX001 (ip), vehicle: water) 63 % of control; (endpoint: median tumor weight change, dose: 10.0 mg/kg/injection, schedule: Q01DX001 (ip), vehicle: water) 72 % of control; (endpoint: median tumor weight change, dose: 40.0 mg/kg/injection, schedule: Q01DX001 (ip), vehicle: water) 60 % of control.
Regarding `O/N=C/c1ccccc1O.O/N=C/c1ccccc1O.[Cu]`, the T/C by setting is: (endpoint: median tumor weight change, dose: 31.25 mg/kg/injection, schedule: Q01DX001 (ip), vehicle: saline with Tween-80) 90 % of control; (endpoint: median tumor weight change, dose: 62.5 mg/kg/injection, schedule: Q01DX001 (ip), vehicle: saline with Tween-80) 59 % of control.
As to `CN(CO)c1nc(N(C)CO)nc(N(C)CO)n1`, the T/C is, setting by setting: (endpoint: median tumor weight (est.), dose: 0.5 mg/kg/injection, schedule: Q07DX005 (ip), vehicle: saline) 56 % of control; (endpoint: median tumor weight (est.), dose: 1.0 mg/kg/injection, schedule: Q07DX005 (ip), vehicle: saline) 78 % of control; (endpoint: median tumor weight (est.), dose: 2.0 mg/kg/injection, schedule: Q07DX005 (ip), vehicle: saline) 110 % of control; (endpoint: median tumor weight (est.), dose: 4.0 mg/kg/injection, schedule: Q07DX005 (ip), vehicle: saline) 48 % of control; (endpoint: median tumor weight (est.), dose: 6.25 mg/kg/injection, schedule: Q07DX005 (ip), vehicle: saline with Tween-80) 92 % of control; (endpoint: median tumor weight (est.), dose: 8.0 mg/kg/injection, schedule: Q07DX005 (ip), vehicle: saline) 46 % of control. For the same compound, the T/C (endpoint: median tumor weight (est.), dose: 12.5 mg/kg/injection, schedule: Q07DX005 (ip), vehicle: saline with Tween-80) was 116 % of control; the T/C (endpoint: median tumor weight (est.), dose: 12.5 mg/kg/injection, schedule: Q07DX006 (ip), vehicle: saline) is 288 % of control; the T/C (endpoint: median tumor weight (est.), dose: 16.0 mg/kg/injection, schedule: Q07DX005 (ip), vehicle: saline) was 14 % of control; the T/C (endpoint: median tumor weight (est.), dose: 25.0 mg/kg/injection, schedule: Q07DX006 (ip), vehicle: saline) is 42 % of control; the T/C under setting [1] is 94 % of control; the T/C (endpoint: median tumor weight (est.), dose: 50.0 mg/kg/injection, schedule: Q07DX006 (ip), vehicle: saline) was 40 % of control. The T/C was 25 % of control under setting [2]; 35 % of control (endpoint: median tumor weight (est.), dose: 100.0 mg/kg/injection, schedule: Q07DX006 (ip), vehicle: saline); 31 % of control (endpoint: median tumor weight (est.), dose: 200.0 mg/kg/injection, schedule: Q07DX005 (ip), vehicle: saline with Tween-80); 5 % of control (endpoint: median tumor weight (est.), dose: 200.0 mg/kg/injection, schedule: Q07DX006 (ip), vehicle: saline).
As to `CC(C)CCC(=O)c1ccoc1`, the T/C was 90 % of control (endpoint: median tumor weight change, dose: 0.31 mg/kg/injection, schedule: Q03HX003 (ip), vehicle: saline with Tween-80); 102 % of control (endpoint: median tumor weight change, dose: 0.62 mg/kg/injection, schedule: Q03HX003 (ip), vehicle: saline with Tween-80); 103 % of control (endpoint: median tumor weight change, dose: 1.25 mg/kg/injection, schedule: Q03HX003 (ip), vehicle: saline with Tween-80).
For the compound `CC[PH+](CC)CC[S-].CC[PH+](CC)CC[S-].[Au+].[Au+]`, the T/C (endpoint: median tumor weight change, dose: 100.0 mg/kg/injection, schedule: Q01DX001 (ip), vehicle: Klucel (hydroxypropylcellulose) (HPC)) is 29 % of control and 34 % of control; the T/C (endpoint: median tumor weight change, dose: 200.0 mg/kg/injection, schedule: Q01DX001 (ip), vehicle: Klucel (hydroxypropylcellulose) (HPC)) is 24 % of control.
On to `CC1(C)OC2C(COC(=O)c3ccc([N+](=O)[O-])cc3)OC(NC(=O)N(CCCl)N=O)C2O1` (stereo not given), for which the T/C was 46 % of control (endpoint: median tumor weight (est.), dose: 1.25 mg/kg/injection, schedule: Q07DX005 (ip), vehicle: saline with Tween-80); 51 % of control (endpoint: median tumor weight (est.), dose: 25.0 mg/kg/injection, schedule: Q07DX005 (ip), vehicle: saline with Tween-80); 16 % of control under setting [1]; 36 % of control under setting [2].
